This note sets out measurements from ChEMBL document CHEMBL3862009 (Bioorg Med Chem Lett, 2016).

Assay [1] has as its target T1, Histamine H4 receptor (Homo sapiens, UniProt Q9H3N8). Description: Intrinsic activity at human histamine H4 receptor expressed in human SH-SY5Y cell membranes by [35S]GTPgammaS binding assay. It is filed as functional. A general note: Binding of GTPγS marks nucleotide exchange on a G protein.
The target in assay [2] is T1, Histamine H4 receptor. Description: Antagonist activity at human histamine H4 receptor expressed in human SH-SY5Y cell membranes assessed as inhibition of Imetit-induced [35S]GTPgammaS binding. It is filed as functional.
The target of assay [3] is T2, Histamine H3 receptor (Homo sapiens, UniProt Q9Y5N1). Description: Displacement of [125I]iodoproxyfan from human H3 receptor expressed in HEK293 cell membranes after 1 hr. In general terms: In a radioligand displacement assay an active substance lowers the binding of a labelled ligand.
T2 sequence (Q9Y5N1 whole entry): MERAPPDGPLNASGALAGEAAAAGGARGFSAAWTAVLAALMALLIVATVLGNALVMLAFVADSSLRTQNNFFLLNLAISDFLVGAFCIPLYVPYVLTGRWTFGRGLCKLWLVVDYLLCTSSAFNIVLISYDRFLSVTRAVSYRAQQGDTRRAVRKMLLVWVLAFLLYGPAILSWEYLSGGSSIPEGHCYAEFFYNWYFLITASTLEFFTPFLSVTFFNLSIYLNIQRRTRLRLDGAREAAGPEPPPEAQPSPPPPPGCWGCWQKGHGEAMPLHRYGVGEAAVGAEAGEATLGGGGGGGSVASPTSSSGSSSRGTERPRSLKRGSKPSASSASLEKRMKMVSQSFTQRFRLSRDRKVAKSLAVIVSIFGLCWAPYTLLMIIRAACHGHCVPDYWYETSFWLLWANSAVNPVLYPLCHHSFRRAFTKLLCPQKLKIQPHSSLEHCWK
Assay [4] has as its system HEK293. Description: Selectivity ratio of Ki for human H3 receptor expressed in HEK293 cell membranes to Kb for human histamine H4 receptor expressed in human SH-SY5Y cell membranes. It counts as cell-based.
In assay [5] the target is T2, Histamine H3 receptor. Description: Binding affinity to histamine H3 receptor (unknown origin).
In assay [6] the target is T1, Histamine H4 receptor. Description: Binding affinity to histamine H4 receptor (unknown origin).
Assay [7] deals with T2, Histamine H3 receptor. Description: Antagonist activity at human histamine H3 receptor.

The structures appear in SMILES notation.

T1 sequence (Q9H3N8 whole entry): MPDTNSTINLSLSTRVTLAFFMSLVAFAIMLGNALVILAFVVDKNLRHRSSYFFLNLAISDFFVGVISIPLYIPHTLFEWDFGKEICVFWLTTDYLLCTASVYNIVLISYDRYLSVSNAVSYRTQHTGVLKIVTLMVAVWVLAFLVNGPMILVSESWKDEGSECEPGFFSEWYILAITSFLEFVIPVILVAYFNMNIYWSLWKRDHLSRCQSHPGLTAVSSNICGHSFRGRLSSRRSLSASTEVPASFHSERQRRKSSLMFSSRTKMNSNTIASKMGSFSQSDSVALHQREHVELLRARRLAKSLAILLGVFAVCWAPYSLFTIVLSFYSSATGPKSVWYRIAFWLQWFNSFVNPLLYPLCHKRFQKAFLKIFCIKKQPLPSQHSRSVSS

For orientation: Kb means the affinity of an antagonist, worked out from how it opposes an agonist. In assay [1], `Cn1cnc(CCCOC(c2ccccc2)c2nc3ccccc3s2)c1` (configuration not stated) gave an Intrinsic activity of 0. Besides, in assay [2], the antagonist dissociation constant (Kb) was more than 10 µM.
Taken in the same sequence, the figures for `c1ccc(C(OCc2c[nH]cn2)c2nc3ccccc3s2)cc1` (configuration not stated) were 0 and 0.399 µM.
`Cn1cncc1CCCOC(c1ccccc1)c1nc2ccccc2s1` (configuration not stated) yielded an Intrinsic activity in assay [1] of 0. Also, in assay [2], the Kb is more than 10 µM.
Broadly, the Ki is the equilibrium dissociation constant of an inhibitor or competing ligand from its target. Read a high Ki as lower affinity. For `c1ccc(C(OCCCc2c[nH]cn2)c2nc3ccccc3s2)cc1` (configuration not stated), the Intrinsic activity in assay [1] is 0. Moreover, in assay [3], the Ki is 0.034 µM. Further, the Selectivity ratio in assay [4] was 31. Further, the antagonist equilibrium constant (Kb) in assay [2] worked out at 0.0011 µM.
`c1ccc(-c2ccc(C(OCCCc3c[nH]cn3)c3ccccc3)cc2)cc1` (configuration not stated) yielded an Intrinsic activity in assay [1] of 0. Further, the antagonist equilibrium constant (Kb) in assay [2] was found to be 0.017 µM.
For the compound `Cn1cnc(CCN)c1` [N-METHYLHISTAMINE], the inhibitory constant (Ki) was found to be 20 µM in assay [5] and 11 µM in assay [6].
`c1ccc(C(OCCn2ccnc2)c2nc3ccccc3s2)cc1` (configuration not stated): the Intrinsic activity in assay [1] was 0. In addition, in assay [2], the antagonist dissociation constant (Kb) is more than 10 µM.
Consider `c1ccc(C(OCCCc2c[nH]cn2)c2ccccc2)cc1`, for which the Intrinsic activity in assay [1] turned out to be 0. Also, the Ki in assay [3] and in assay [7] was 0.017 µM in each case. Also, in assay [4], the Selectivity ratio is 0.9. For the same compound, the Kb in assay [2] amounted to 0.019 µM.
`c1ccc(C(OCCCc2c[nH]cn2)c2ccc3ccccc3c2)cc1` (configuration not stated) had an Intrinsic activity in assay [1] of 0. For the same compound, the Kb in assay [2] stood at 0.1 µM.
Taken in the same sequence, the figures for `c1ccc(C(OCCCCn2ccnc2)c2nc3ccccc3s2)cc1` (configuration not stated) were 0 and more than 10 µM.
Taken in the same sequence, the figures for `Cc1[nH]cnc1CCCOC(c1ccccc1)c1nc2ccccc2s1` (configuration not stated) were 0 and 0.0016 µM.
Consider `c1ccc(C(OCCCn2ccnc2)c2nc3ccccc3s2)cc1` (configuration not stated), for which the Intrinsic activity in assay [1] turned out to be 0. In assay [2], the antagonist dissociation constant (Kb) was more than 10 µM.
Taken in the same sequence, the figures for `c1ccc(C(OCCc2c[nH]cn2)c2nc3ccccc3s2)cc1` (configuration not stated) were 0 and 0.0037 µM.
In turn, `c1ccc(C(OCCCc2c[nH]cn2)c2cccnc2)cc1` (configuration not stated) displayed an Intrinsic activity in assay [1] of 0. The Kb in assay [2] was determined as 0.032 µM.
As to `Cc1nc(CCCOC(c2ccccc2)c2nc3ccccc3s2)c[nH]1` (configuration not stated), the Intrinsic activity in assay [1] is 0. In addition, the Kb in assay [2] is more than 10 µM.
For `c1ccc(C(OCCCc2c[nH]cn2)c2cncnc2)cc1` (configuration not stated) the same measures were 0 and 0.029 µM.
